Measurements reported in US11389456B2, “Compounds and methods for treating oxalate-related diseases” (OxaluRx, Inc., priority 2018, dated 2022).
≈ marks a conversion by molar mass, not a printed value. Like-named read-outs stand apart in the source and are kept apart here.

What was measured:
[1] = target: recombinant full-length human hydroxyacid oxidase 1 (HAO1), the equivalent of hGOX (Homo sapiens (Human), UniProt Q9UJM8); experiment: In-vitro human glycolate oxidase (hGOX) assay (Amplex red/HRP fluorescence); assay type: biochemical
Chain of recombinant full-length human hydroxyacid oxidase 1 (HAO1), the equivalent of hGOX (Q9UJM8 whole entry): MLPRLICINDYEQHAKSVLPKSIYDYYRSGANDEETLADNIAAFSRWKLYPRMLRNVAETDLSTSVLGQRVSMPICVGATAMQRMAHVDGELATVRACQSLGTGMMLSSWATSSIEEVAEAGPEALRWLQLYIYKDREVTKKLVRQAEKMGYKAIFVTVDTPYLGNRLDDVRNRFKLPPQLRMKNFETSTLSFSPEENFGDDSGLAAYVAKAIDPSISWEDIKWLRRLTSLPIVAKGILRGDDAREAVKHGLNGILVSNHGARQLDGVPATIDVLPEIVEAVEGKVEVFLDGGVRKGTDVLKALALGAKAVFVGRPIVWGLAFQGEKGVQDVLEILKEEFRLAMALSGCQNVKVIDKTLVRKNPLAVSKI
Procedure: Biological Activity Assay: In-Vitro Human Glycolate Oxidase (hGOX) Assay
The in-vitro glycolate oxidase assay was performed using recombinant full-length human hydroxyacid oxidase 1 (HAO1), the equivalent of hGOX. […] Purified HAO1 was dissolved in assay buffer consisting of 10 mM NaCl, 110 mM KCl, 2 mM MgCl2, 50 mM HEPES (pH 7.4) and 0.01% Triton™ X-100.

[2] = target: glycolate oxidase (GOX) in HepaRG-CAR cells (Homo sapiens (Human), UniProt Q9UJM8); experiment: HepaRG-CAR cell-based assay for quantitation of glycolate oxidase inhibition (cellular glycolate flux, GC-MS)
Chain of glycolate oxidase (GOX) in HepaRG-CAR cells (Q9UJM8 whole entry): as above

[3] = Solubility in phosphate buffered saline (PBS), pH 7.4; assay type: physicochemical; settings: phosphate buffered saline pH 7.4, 1% DMSO, 1 hour shaking at room temperature
How it was run: (§1)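 DMSO stock (10 mM) diluted into 100 mM phosphate buffer pH 7.4, or into deionized distilled water for the aqueous assay, at 1% final DMSO and shaken 1 h at room temperature. After centrifugation, supernatants quantified by LC-MS/MS against a calibration curve with internal standard.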

[4] = Solubility in aqueous solution (deionized, distilled water); assay type: physicochemical; settings: 1% DMSO, read-out: Aqueous Solubility H2O
How it was run: as §1

[5] = Metabolic stability in human liver microsomal preparation; assay type: in vitro ADME; settings: human liver microsomes, NADPH, 37° C.; for CLint scaled at 1 μM / half-life at 1 μM: pH 7.4; for half-life at 1 μM: read-out: Metabolic Stability t1/2
How it was run: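 Compound at 1.5 μM with 0.75 mg/mL human liver microsomes (concentrations before NADPH addition) in 0.1 M potassium phosphate, 1 mM EDTA, pH 7.4 was preincubated 5 min at 37 °C, then started with NADPH. Samples at 0, 5, 15, 30 and 45 min were quenched with acetonitrile/internal standard and analysed by LC/MS.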

[6] = Stability in human plasma; assay type: in vitro ADME; settings: for half-life at 2 μM: read-out: Plasma Stability T1/2
How it was run: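 Pooled human plasma (pH 7.4-8) at 37° C, test compound spiked from a 0.02 mM solution in phosphate buffer with 0.5% BSA. Samples taken at 0, 5, 15, 30, 45 and 60 min, quenched with acetonitrile containing internal standard, and remaining compound measured by LC/MS.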

[7] = Protein binding (plasma equilibrium dialysis); assay type: in vitro ADME; settings: 5 hours at 37° C.; for fraction unbound at 5 h, 1 μM: read-out: Protein Binding Fraction Bound (converted)
How it was run: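 Compound spiked into plasma at 1 μM final (0.2% DMSO) and dialysed against phosphate buffer for 5 hours at 37 °C with shaking. Donor and receiver samples, matrix-matched and acetonitrile-quenched with internal standard, quantified by LC/MS/MS alongside 0-hour plasma samples.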

[8] = HepaRG-CAR cells, 500 μM glycolate, 48 hours incubation, read-out: IC50
[9] = phosphate buffer (PBS), aqueous buffer, kinetic from dmso stock

Row | IC50 [1] | IC50 [2, 8] | solubility at 1 h [3, 9] | solubility at 1 h ([4]; kinetic from dmso stock) | CLint scaled at 1 μM [5] | half-life at 1 μM ([5]; 0-45 min) | half-life at 2 μM [6] | recovery at 5 h, 1 μM [7] | fraction unbound at 5 h, 1 μM [7] | IC50 [2] | SMILES | IC50 ([1]; 12.5 nM HAO1, 85 μM glycolate, 2.5% DMSO, read-out: IC50) | solubility at 1 h ([3]; read-out: Aqueous Solubility PBS) | solubility at 1 h [4] | Metabolic Stability Clint [5] | Metabolic Stability t1/2 ([5]; 0-45 min) | Plasma Stability T1/2 [6] | Protein Binding Recovery ([7]; 1 μM)
1 | 0.38 µM | > 10 µM | 108 µM (≈ 30.4 µg/mL) | 105 µM (≈ 29.7 µg/mL) | 0.17 mL/min/kg | 173 h | 1.72 h | 123% |  |  | O=C(O)c1nn[nH]c1Oc1cncc(-c2cccnc2)c1 [Example I-264, 5-([3,3′-Bipyridin]-5-yloxy)-1H-1,2,3-triazole-4-carboxylic acid] |  |  |  |  |  |  | 
2 | 0.006 µM | 5 µM | 97.1 µM (≈ 34 µg/mL) | 81 µM (≈ 28.3 µg/mL) | < 0.15 mL/min/kg | > 83.3 h | 3.35 h | 102% |  |  | O=C(O)c1nn[nH]c1Oc1cccc(-c2ccc(Cl)c(Cl)c2)c1 [Example I-255, 5-((3′,4′-Dichloro-[1,1′-biphenyl]-3-yl)oxy)-1H-1,2,3-triazole-4-carboxylic acid] |  |  |  |  |  |  | 
3 | 0.021 µM | 2.5 µM | 100 µM (≈ 28.4 µg/mL) | 94.4 µM (≈ 26.6 µg/mL) | 2.81 mL/min/kg | 10.3 h | 1.79 h | 114% | 0.047 |  | O=C(O)c1nn[nH]c1Oc1cccc(-c2ccncc2)c1 [Example I-260, 5-(3-(Pyridin-4-yl)phenoxy)-1H-1,2,3-triazole-4-carboxylic acid] |  |  |  |  |  |  | 
4 | 0.141 µM | > 10 µM | 106 µM (≈ 29.9 µg/mL) | 99 µM (≈ 27.9 µg/mL) | 2.48 mL/min/kg | 11.7 h | 1.51 h | 111% | 0.014 |  | O=C(O)c1nn[nH]c1Oc1ccc(-c2ccccc2)nc1 [Example I-263, 5-((6-Phenylpyridin-3-yl)oxy)-1H-1,2,3-triazole-4-carboxylic acid] |  |  |  |  |  |  | 
5 | 0.044 µM | 0.3 µM | 95.8 µM (≈ 24.3 µg/mL) | 93.5 µM (≈ 23.7 µg/mL) | < 0.15 mL/min/kg | > 83.3 h | 1.05 h | 110% |  |  | Cc1cc(Oc2[nH]nnc2C(=O)O)ccc1Cl [Example I-258, 5-(4-Chloro-3-methylphenoxy)-1H-1,2,3-triazole-4-carboxylic acid] |  |  |  |  |  |  | 
6 | 0.022 µM |  | 90.5 µM (≈ 27.7 µg/mL) | 86.9 µM (≈ 26.6 µg/mL) | 0.4 mL/min/kg | 71.6 h | 8.52 h | 113% |  | 10 µM | N#Cc1cccc(-c2ccc(Oc3[nH]nnc3C(=O)O)cc2)c1 [Example I-256, 5-((3′-Cyano-[1,1′-biphenyl]-4-yl)oxy)-1H-1,2,3-triazole-4-carboxylic acid] |  |  |  |  |  |  | 
7 | 0.013 µM | 2.5 µM | 91.8 µM (≈ 33 µg/mL) | 89.8 µM (≈ 32.3 µg/mL) | 1.53 mL/min/kg | 19 h | 3.04 h | 102% | 0.022 |  | CS(=O)(=O)c1ccc(-c2cccc(Oc3[nH]nnc3C(=O)O)c2)cc1 [Example I-257, 5-((4′-(Methylsulfonyl)-[1,1′-biphenyl]-3-yl)oxy)-1H-1,2,3-triazole-4-carboxylic acid] |  |  |  |  |  |  | 
8 | 0.013 µM | 2.5 µM | 108 µM (≈ 31.9 µg/mL) | 101 µM (≈ 29.8 µg/mL) | 17.7 mL/min/kg | 1.64 h | 4.87 h | 98.2% |  |  | Cc1ccc(-c2cccc(Oc3[nH]nnc3C(=O)O)c2)cc1 [Example I-251, 5-((4′-Methyl-[1,1′-biphenyl]-3-yl)oxy)-1H-1,2,3-triazole-4-carboxylic acid] |  |  |  |  |  |  | 
9 | 0.191 µM | > 10 µM | 97.2 µM (≈ 27.4 µg/mL) | 94.2 µM (≈ 26.6 µg/mL) | < 0.15 mL/min/kg | > 83.3 h | 1.63 h | 120% | 0.009 |  | O=C(O)c1nn[nH]c1Oc1cncc(-c2ccccc2)c1 [Example I-262, 5-((5-Phenylpyridin-3-yl)oxy)-1H-1,2,3-triazole-4-carboxylic acid] |  |  |  |  |  |  | 
10 | 0.013 µM | 2 µM | 104 µM (≈ 32.8 µg/mL) | 98 µM (≈ 30.9 µg/mL) | 7.66 mL/min/kg | 3.78 h | 5.02 h | 97.1% |  |  | O=C(O)c1nn[nH]c1Oc1cccc(-c2ccc(Cl)cc2)c1 [Example I-252, 5-((4′-Chloro-[1,1′-biphenyl]-3-yl)oxy)-1H-1,2,3-triazole-4-carboxylic acid] |  |  |  |  |  |  | 
11 | 0.009 µM | 2.5 µM | 102 µM (≈ 32.2 µg/mL) | 91.7 µM (≈ 29 µg/mL) | 5.51 mL/min/kg | 5.26 h | 1.78 h | 112% |  |  | O=C(O)c1nn[nH]c1Oc1cccc(-c2cccc(Cl)c2)c1 [Example I-253, 5-((3′-Chloro-[1,1′-biphenyl]-3-yl)oxy)-1H-1,2,3-triazole-4-carboxylic acid] |  |  |  |  |  |  | 

Further lines, the compound ahead of its results:

Row | SMILES | IC50 [1] | IC50 [2, 8] | solubility at 1 h [3, 9] | solubility at 1 h ([4]; kinetic from dmso stock) | CLint scaled at 1 μM [5] | half-life at 1 μM ([5]; 0-45 min) | half-life at 2 μM [6] | recovery at 5 h, 1 μM [7] | fraction unbound at 5 h, 1 μM [7] | IC50 [2] | IC50 ([1]; 12.5 nM HAO1, 85 μM glycolate, 2.5% DMSO, read-out: IC50) | solubility at 1 h ([3]; read-out: Aqueous Solubility PBS) | solubility at 1 h [4] | Metabolic Stability Clint [5] | Metabolic Stability t1/2 ([5]; 0-45 min) | Plasma Stability T1/2 [6] | Protein Binding Recovery ([7]; 1 μM)
12 | Cc1cc(Oc2[nH]nnc2C(=O)O)ccc1Br [Example I-037, 5-(4-Bromo-3-methylphenoxy)-1H-1,2,3-triazole-4-carboxylic acid] | 0.034 µM | 0.4 µM | 96.8 µM (≈ 28.9 µg/mL) | 96.1 µM (≈ 28.6 µg/mL) | < 0.15 mL/min/kg | > 83.3 h | 0.786 h | 105% |  |  |  |  |  |  |  |  | 
13 | O=C(O)c1nn[nH]c1Oc1ccc(-c2ccc(F)cc2)cc1 [Example I-160, 5-((4′-Fluoro-[1,1′-biphenyl]-4-yl)oxy)-1H-1,2,3-triazole-4-carboxylic acid] | 0.012 µM | 2.5 µM | 101 µM (≈ 30.3 µg/mL) | 64.6 µM (≈ 19.3 µg/mL) | 6.99 mL/min/kg | 4.14 h | 2.88 h | 93.6% |  |  |  |  |  |  |  |  | 
14 | O=C(O)c1nn[nH]c1Oc1ccc2ccccc2c1 [Example I-058, 5-(Naphthalen-2-yloxy)-1H-1,2,3-triazole-4-carboxylic acid] | 0.05 µM | 2 µM | 90.8 µM (≈ 23.2 µg/mL) | 81.5 µM (≈ 20.8 µg/mL) | 2.1 mL/min/kg | 13.8 h | 0.852 h | 101% |  |  |  |  |  |  |  |  | 
15 | O=C(O)c1nn[nH]c1Oc1cccc(-c2ccccc2)c1 [Example I-249, 5-([1,1′-Biphenyl]-3-yloxy)-1H-1,2,3-triazole-4-carboxylic acid] | 0.019 µM | 2 µM | 103 µM (≈ 29.1 µg/mL) | 108 µM (≈ 30.2 µg/mL) | 5 mL/min/kg | 5.79 h | 3.71 h | 99.2% |  |  |  |  |  |  |  |  | 
16 | O=C(O)c1nn[nH]c1Oc1ccc(-c2ccccc2F)cc1 [Example I-174, 5-((2′-Fluoro-[1,1′-biphenyl]-4-yl)oxy)-1H-1,2,3-triazole-4-carboxylic acid] | 0.027 µM | 3 µM | 89.8 µM (≈ 26.9 µg/mL) | 70.3 µM (≈ 21.1 µg/mL) | 2.48 mL/min/kg | 11.7 h | 1.17 h | 99.9% |  |  |  |  |  |  |  |  | 
17 | COc1cccc(-c2ccc(Oc3[nH]nnc3C(=O)O)cc2)c1 [Example I-158, 5-((3′-Methoxy-[1,1′-biphenyl]-4-yl)oxy)-1H-1,2,3-triazole-4-carboxylic acid] | 0.008 µM |  | 106 µM (≈ 33 µg/mL) | 101 µM (≈ 31.4 µg/mL) | < 0.15 mL/min/kg | > 83.3 h | 4.77 h | 92.5% |  | 5 µM |  |  |  |  |  |  | 
18 | O=C(O)c1[nH]nnc1Oc1ccc(-c2ccc(Cl)c(Cl)c2)cc1 [Example I-171, 5-((3′,4′-Dichloro-[1,1′-biphenyl]-4-yl)oxy)-1H-1,2,3-triazole-4-carboxylic acid] | 0.01 µM | > 10 µM | 96.3 µM (≈ 33.7 µg/mL) | 45.8 µM (≈ 16 µg/mL) | 14.4 mL/min/kg | 2.01 h | 1.93 h | 87.5% |  |  |  |  |  |  |  |  | 
19 | O=C(O)c1nn[nH]c1Oc1ccc(-c2ccccn2)cc1 [Example I-261, 5-(4-(Pyridin-2-yl)phenoxy)-1H-1,2,3-triazole-4-carboxylic acid] |  | > 10 µM |  |  |  |  |  |  |  |  | 0.15 µM | 101.5 µM (≈ 28.6 µg/mL) | 105 µM (≈ 29.6 µg/mL) | 1.58 mL/min/kg | 18.301 h | 1.328 h | 111.0%
